Structures are written as SMILES. Numbered stars: 1 amine (or outer) side, 2 acyl side, 3 side chain; on linkers, the order of the positions; unused ones are H or OH. Bridge positions count the residues as written; N and C are the ends. Square brackets hold non-standard residues; d marks the D form. Peptide text beside a SMILES is read from it. * marks the point of attachment. ξ: configuration not given here. X16 = O=C([C@H](Cc1ccc2cnccc2c1)N[*:1])[*:2]; X23 = O=C([C@H](Cc1cc2ccccc2cn1)N[*:1])[*:2]; Bip = N[C@@H](Cc1ccc(-c2ccccc2)cc1)C(=O)O; Bta = N[C@@H](Cc1csc2ccccc12)C(=O)O; 4Pal = N[C@@H](Cc1ccncc1)C(=O)O; d3Pal = N[C@H](Cc1cccnc1)C(=O)O; Cha = N[C@@H](CC1CCCCC1)C(=O)O; Cit = NC(=O)NCCC[C@H](N)C(=O)O; Ile(3ξ) = CCC(C)[C@H](N)C(=O)O; Thr(3ξ) = CC(O)[C@H](N)C(=O)O; Carboxymethyl = O=C(O)C*; NMeA = CN[C@@H](C)C(=O)O; Dab = NCC[C@H](N)C(=O)O; Dap = NC[C@H](N)C(=O)O; ξC = NC(CS)C(=O)O

This assay concerns the target T1, PE-labeled human PD-L1-Ig binding to Jurkat cell line over-expressing human PD-1 (Jurkat-PD-1) (Homo sapiens, UniProt Q15116).
T1 construct: expressed in transfected cells; host or cells: Jurkat
As to the kind of experiment: Jurkat-PD-1 Cell Binding High-Content Screening Assay (CBA): Method 1. The following applies: Jurkat-hPD-1 cells, PE-labeled PD-L1-Ig 20 nM final; read-out: Jurkat HPDL1 PD1 IC50 (uM) (Method 1).

T1 sequence (Q15116 25-288): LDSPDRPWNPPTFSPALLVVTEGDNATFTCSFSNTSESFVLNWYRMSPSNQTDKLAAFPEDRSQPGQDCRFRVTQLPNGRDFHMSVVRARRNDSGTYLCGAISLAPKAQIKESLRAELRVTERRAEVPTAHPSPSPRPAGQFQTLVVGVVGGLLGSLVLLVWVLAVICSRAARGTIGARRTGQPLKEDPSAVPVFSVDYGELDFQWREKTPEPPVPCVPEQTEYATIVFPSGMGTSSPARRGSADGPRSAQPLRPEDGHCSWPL

As to `CC(C)C[C@@H]1NC(=O)[C@H](CCCNC(=N)N)NC(=O)[C@@H](CC(C)C)NC(=O)[C@H](C)N(C)C(=O)[C@H](CCCNC(=N)N)NC(=O)[C@H](Cc2ccc(-c3ccccc3)cc2)NC(=O)[C@H](C(C)C)NC(=O)[C@H](Cc2c[nH]c3ccccc23)NC(=O)[C@H](CC(=O)O)NC(=O)[C@H](Cc2ccncc2)NC(=O)[C@H](Cc2ccccc2)NC(=O)CSC[C@@H](C(=O)N[C@@H](C)C(N)=O)NC(=O)[C@H]([C@@H](C)O)NC(=O)[C@H](C(C)C)NC1=O` [Compound 1085] ({CH2CO}-F[4Pal]DWV[Bip]R[NMeA][dL]RLVTCA-NH2; thioether N-14), the IC50 (in general, the midpoint of a concentration-inhibition curve) came to 0.07 µM. As for `CC[C@@H](C)[C@H]1NC(=O)[C@H](C)N(C)C(=O)[C@H](CCCNC(=N)N)NC(=O)[C@H](Cc2ccc(-c3ccccc3)cc2)NC(=O)[C@H](C(C)C)NC(=O)[C@H](Cc2c[nH]c3ccccc23)NC(=O)[C@H](CC(=O)O)NC(=O)[C@H](Cc2ccc(O)cc2)NC(=O)[C@H](Cc2ccccc2)NC(=O)CSC[C@@H](C(=O)N[C@@H](C)C(N)=O)NC(=O)[C@H]([C@@H](C)O)NC(=O)[C@H](C(C)C)NC(=O)[C@H](CC(C)C)NC(=O)[C@H](CCCNC(=N)N)NC1=O` [Compound 1066] ({CH2CO}-FYDWV[Bip]R[NMeA][dI]RLVTCA-NH2; thioether N-14), the IC50 amounted to 0.79 µM. Under `CC(C)C[C@@H]1NC(=O)[C@H](Cc2c[nH]c3ccccc23)NC(=O)[C@H](CC(=O)O)NC(=O)[C@H](Cc2ccncc2)NC(=O)[C@H](Cc2ccc(OCC(=O)O)cc2)NC(=O)CSC[C@@H](C(=O)N[C@@H](CC(N)=O)C(N)=O)NC(=O)[C@H](CO)NC(=O)[C@H](C(C)C)NC(=O)[C@H](CC2CCCCC2)NC(=O)[C@H](CCN)NC(=O)[C@@H](CC(C)C)NC(=O)[C@H](C)N(C)C(=O)[C@H](Cc2ccc(O)cc2)NC(=O)[C@H](Cc2ccc(-c3ccccc3)cc2)NC1=O` [Compound 1906] ({CH2CO}-Y(Carboxymethyl)[4Pal]DWL[Bip]Y[NMeA][dL][Dab][Cha]VSCN-NH2; thioether N-14) stands 0.05 µM. Under `CC(C)C[C@@H]1NC(=O)[C@H](Cc2c[nH]c3ccccc23)NC(=O)[C@H](CC(=O)O)NC(=O)[C@H](Cc2ccncc2)NC(=O)[C@H](Cc2ccc(OCC(=O)O)cc2)NC(=O)CSC[C@@H](C(=O)N[C@@H](C)C(N)=O)NC(=O)[C@H](CO)NC(=O)[C@H](C(C)C)NC(=O)[C@H](CC(C)C)NC(=O)[C@H](CC(N)=O)NC(=O)[C@@H](CC(C)C)NC(=O)[C@H](C)N(C)C(=O)[C@H](C(C)C)NC(=O)[C@H](Cc2ccc(-c3ccccc3)cc2)NC1=O` [Compound 1591] ({CH2CO}-Y(Carboxymethyl)[4Pal]DWL[Bip]V[NMeA][dL]NLVSCA-NH2; thioether N-14) stands 0.03 µM.

In the case of `CC(C)C[C@@H]1NC(=O)[C@H](CC(N)=O)NC(=O)[C@@H](CC(C)C)NC(=O)[C@H](C)N(C)C(=O)[C@H](C(C)C)NC(=O)[C@H](Cc2ccc(-c3ccccc3)cc2)NC(=O)[C@H](CCN)NC(=O)[C@H](Cc2c[nH]c3ccccc23)NC(=O)[C@H](CC(=O)O)NC(=O)[C@H](Cc2ccc(O)cc2)NC(=O)[C@H](Cc2ccccc2)NC(=O)CSC[C@@H](C(=O)N[C@@H](C)C(N)=O)NC(=O)[C@H](CO)NC(=O)[C@H](CC(=O)O)NC1=O` [Compound 2026] ({CH2CO}-FYDW[Dab][Bip]V[NMeA][dL]NLDSCA-NH2; thioether N-14), the IC50 amounted to 0.12 µM. To `CC(C)C[C@@H]1NC(=O)[C@H](CCN)NC(=O)[C@@H](CC(C)C)NC(=O)[C@H](C)N(C)C(=O)[C@H](CCCNC(N)=O)NC(=O)[C@H](Cc2ccc(-c3ccccc3)cc2)NC(=O)[C@H](C(C)C)NC(=O)[C@H](Cc2c[nH]c3ccccc23)NC(=O)[C@H](CC(=O)O)NC(=O)[C@H](Cc2ccc(O)cc2)NC(=O)[C@H](Cc2cc3ccccc3cn2)NC(=O)CSC[C@@H](C(=O)N[C@@H](C)C(N)=O)NC(=O)[C@H](C(C)O)NC(=O)[C@H](C(C)C)NC1=O` (stereo partly drawn) [Compound 2035] ({CH2CO}-[X23]YDWV[Bip][Cit][NMeA][dL][Dab]LV[Thr(3ξ)]CA-NH2; thioether N-14) belongs 0.04 µM. Under `CCC(C)[C@@H]1NC(=O)[C@H](Cc2ccc(-c3ccccc3)cc2)NC(=O)[C@H](C(C)C)NC(=O)[C@H](Cc2c[nH]c3ccccc23)NC(=O)[C@H](CC(=O)O)NC(=O)[C@H](Cc2ccc(O)cc2)NC(=O)[C@H](Cc2ccc3cnccc3c2)NC(=O)CSC[C@@H](C(=O)N[C@@H](C)C(N)=O)NC(=O)[C@H](C(C)O)NC(=O)[C@H](C(C)C)NC(=O)[C@H](CC2CCCCC2)NC(=O)[C@H](CCN)NC(=O)[C@@H](CC(C)C)NC(=O)[C@H](C)N(C)C1=O` (stereo partly drawn) [Compound 2046] ({CH2CO}-[X16]YDWV[Bip][Ile(3ξ)][NMeA][dL][Dab][Cha]V[Thr(3ξ)]CA-NH2; thioether N-14) stands 0.02 µM.

For the compound `CC(C)C[C@@H]1NC(=O)[C@H](CCCNC(=N)N)NC(=O)[C@@H](CC(C)C)NC(=O)[C@H](C)N(C)C(=O)[C@H](CCCNC(N)=O)NC(=O)[C@H](Cc2ccc(-c3ccccc3)cc2)NC(=O)[C@H](C(C)C)NC(=O)[C@H](Cc2c[nH]c3ccccc23)NC(=O)[C@H](CC(=O)O)NC(=O)[C@H](Cc2ccc(O)cc2)NC(=O)[C@H](CC(N)=O)NC(=O)CSC[C@@H](C(=O)NCC(N)=O)NC(=O)[C@H](CO)NC(=O)[C@H](C(C)C)NC1=O` [Compound 1246] ({CH2CO}-NYDWV[Bip][Cit][NMeA][dL]RLVSCG-NH2; thioether N-14), the IC50 turned out to be 0.05 µM. Take `CC(C)C[C@@H]1NC(=O)[C@H](CCCNC(=N)N)NC(=O)[C@@H](Cc2cccnc2)NC(=O)[C@H](C)N(C)C(=O)[C@H](CCCNC(=N)N)NC(=O)[C@H](Cc2ccc(-c3ccccc3)cc2)NC(=O)[C@H](C(C)C)NC(=O)[C@H](Cc2c[nH]c3ccccc23)NC(=O)[C@H](CC(=O)O)NC(=O)[C@H](Cc2ccc(O)cc2)NC(=O)[C@H](Cc2ccccc2)NC(=O)CSC[C@@H](C(=O)N[C@@H](C)C(N)=O)NC(=O)[C@H]([C@@H](C)O)NC(=O)[C@H](C(C)C)NC1=O` [Compound 1104] ({CH2CO}-FYDWV[Bip]R[NMeA][d3Pal]RLVTCA-NH2; thioether N-14): the IC50 came to 0.13 µM.

For `CC(C)C[C@@H]1NC(=O)[C@H](CCCNC(=N)N)NC(=O)[C@@H](CC(C)C)NC(=O)[C@H](C)N(C)C(=O)[C@H](CCC(=O)O)NC(=O)[C@H](Cc2ccc(-c3ccccc3)cc2)NC(=O)[C@H](C(C)C)NC(=O)[C@H](Cc2c[nH]c3ccccc23)NC(=O)[C@H](CC(=O)O)NC(=O)[C@H](Cc2ccc(O)cc2)NC(=O)[C@H](CC(N)=O)NC(=O)CSC[C@@H](C(=O)N[C@@H](C)C(N)=O)NC(=O)[C@H]([C@@H](C)O)NC(=O)[C@H](C(C)C)NC1=O` [Compound 1254] ({CH2CO}-NYDWV[Bip]E[NMeA][dL]RLVTCA-NH2; thioether N-14), the IC50 is 0.03 µM. As to `CC(C)C[C@@H]1NC(=O)[C@H](CCN)NC(=O)[C@@H](CC(C)C)NC(=O)[C@H](C)N(C)C(=O)[C@H](CCCNC(=N)N)NC(=O)[C@H](Cc2ccc(-c3ccccc3)cc2)NC(=O)[C@H](C(C)C)NC(=O)[C@H](Cc2c[nH]c3ccccc23)NC(=O)[C@H](CC(=O)O)NC(=O)[C@H](Cc2ccc(O)cc2)NC(=O)[C@H](CC(N)=O)NC(=O)CSC[C@@H](C(=O)NCC(N)=O)NC(=O)[C@H](CO)NC(=O)[C@H](C(C)C)NC1=O` [Compound 1247] ({CH2CO}-NYDWV[Bip]R[NMeA][dL][Dab]LVSCG-NH2; thioether N-14), the IC50 is 0.06 µM. Regarding `CCC(C)[C@@H]1NC(=O)[C@H](Cc2ccc(-c3ccccc3)cc2)NC(=O)[C@H](C(C)C)NC(=O)[C@H](Cc2c[nH]c3ccccc23)NC(=O)[C@H](CC(=O)O)NC(=O)[C@H](Cc2ccc(O)cc2)NC(=O)[C@H](Cc2ccncc2)NC(=O)CSC[C@@H](C(=O)N[C@@H](CN)C(N)=O)NC(=O)[C@H](C(C)O)NC(=O)[C@H](C(C)C)NC(=O)[C@H](CC2CCCCC2)NC(=O)[C@H](CC(N)=O)NC(=O)[C@@H](CC(C)C)NC(=O)[C@H](C)N(C)C1=O` (stereo partly drawn) [Compound 2157] ({CH2CO}-[4Pal]YDWV[Bip][Ile(3ξ)][NMeA][dL]N[Cha]V[Thr(3ξ)]C[Dap]-NH2; thioether N-14), the IC50 was determined as 0.04 µM. With `CC(C)C[C@@H]1NC(=O)[C@H](CCCNC(=N)N)NC(=O)[C@H](Cc2csc3ccccc23)NC(=O)[C@H](C)N(C)C(=O)[C@H](CCCNC(=N)N)NC(=O)[C@H](Cc2ccc(-c3ccccc3)cc2)NC(=O)[C@H](C(C)C)NC(=O)[C@H](Cc2c[nH]c3ccccc23)NC(=O)[C@H](CC(=O)O)NC(=O)[C@H](Cc2ccc(O)cc2)NC(=O)[C@H](CCC(N)=O)NC(=O)CSC[C@@H](C(=O)NCC(N)=O)NC(=O)[C@H](CO)NC(=O)[C@H](C(C)C)NC1=O` [Compound 1028] ({CH2CO}-QYDWV[Bip]R[NMeA][Bta]RLVSCG-NH2; thioether N-14), the IC50 amounted to 0.11 µM.

`CCC(C)[C@@H]1NC(=O)[C@H](Cc2ccc(-c3ccccc3)cc2)NC(=O)[C@H](C(C)C)NC(=O)[C@H](Cc2c[nH]c3ccccc23)NC(=O)[C@H](CC(=O)O)NC(=O)[C@H](Cc2ccc(O)cc2)NC(=O)[C@H](Cc2ccncc2)NC(=O)CSCC(C(=O)N[C@@H](CCCCN)C(=O)O)NC(=O)[C@H](C(C)O)NC(=O)[C@H](C(C)C)NC(=O)[C@H](CC2CCCCC2)NC(=O)[C@H](CC(N)=O)NC(=O)[C@@H](CC(C)C)NC(=O)[C@H](C)N(C)C1=O` (stereo partly drawn) [Compound 2215] ({CH2CO}-[4Pal]YDWV[Bip][Ile(3ξ)][NMeA][dL]N[Cha]V[Thr(3ξ)][ξC]K-OH; thioether N-14): the IC50 worked out at 0.03 µM. For the compound `CC(C)C[C@@H]1NC(=O)[C@H](CCN)NC(=O)[C@@H](CC(C)C)NC(=O)[C@H](C)N(C)C(=O)[C@H](CCCNC(=N)N)NC(=O)[C@H](Cc2ccc(-c3ccccc3)cc2)NC(=O)[C@H](C(C)C)NC(=O)[C@H](Cc2c[nH]c3ccccc23)NC(=O)[C@H](CC(=O)O)NC(=O)[C@H](Cc2ccc(O)cc2)NC(=O)[C@H](CC(N)=O)NC(=O)CSC[C@@H](C(=O)NCC(N)=O)NC(=O)[C@H]([C@@H](C)O)NC(=O)[C@H](C(C)C)NC1=O` [Compound 1249] ({CH2CO}-NYDWV[Bip]R[NMeA][dL][Dab]LVTCG-NH2; thioether N-14), the IC50 was found to be 0.06 µM.

These data come from patent publication US20240409585A1, “MACROCYCLIC IMMUNOMODULATORS” (priority 2021, published 2024).
